In one test the test system is TRPV3. The following applies: TRPV3 activation, relatively weak and nonspecific across TRPs; cited from earlier work.
Another test concerns FITC-challenged mice. In words: Contact hypersensitivity (CHS) to FITC, ear swelling in mice. To be noted: Mus musculus, reduction in ear skin thickness vs vehicle, 24 hours after FITC challenge, read-out: FITC % effect. It counts as in vivo, mice (BALB/c). The method, then:
(ii) In vivo Data The following protocol was used to evaluate the efficacy of a compound against contact hypersensitivity:
Young adult female BALB/c mice (18±2 g body weight at 6-8 weeks old) Charles River Laboratories) were maintained under pathogen-free conditions and housed in an animal room maintained t at temperature of 21±1° C. and a humidity of 43±5%. Induction of contact hypersensitivity (CHS) and ear thickness measurements for all animals were carried out under light anesthesia (3-5% isoflurane/oxygen) for 1-2 minutes.
Contact hypersensitivity consists of the afferent or initiation sensitizing phase, and the efferent or elicitation phase. The latter phase occurs when epidermal cells encounter a particular antigen to which the epidermal cells have previously been exposed, and is characterized in rodents by localized swelling in the skin.
Fluorescein isothiocyanate (FITC) was purchased from Sigma-Aldrich and dissolved in 1:1 in acetone/dibutylphthalate prior to epicutaneous application. Mice were sensitized by painting epicutaneously 40 uL of 0.5% FITC on the abdomen ventral skin shaved one day prior to sensitization. Six days later, mice were challenged by painting epicutaneously 20 uL total volume of 0.5% FITC on the right ear (10 uL on either side). Control mice were treated with vehicle only. Ear swelling was measured 24 hours after challenge. Treatment groups were dosed orally at a dose volume of 10 mL/kg with compounds either BID (1 hour prior to FITC challenge, 8 hours after first dose and 2 hours prior to ear swelling measurement at 24 hours post FITC challenge) or QD (1 hour prior to FITC challenge and 2 hours prior to ear swelling measurement at 24 hours post FITC challenge). Inflammation was determined by the degree of ear swelling of the hapten exposed ear compared with the untreated ear with a Quick Mini thickness-gauge caliber (Mitutoyo, Japan). The change in ear thickness after allergen treatment can be used to calculate the percent suppression of contact hypersensitivity.
The level of compound-mediated suppression of ear skin thickness in FITC-challenged mice is indicated in Table 2 wherein “A” refers to a reduction in ear skin thickness of >50%, “B” refers to a reduction in ear skin thickness of 30-50% and “C” refers to a reduction in ear skin thickness of <30% relative to vehicle-treated animals.

The target of another test is T1, human TRPV3 (Homo sapiens, UniProt Q8NET8).
T1 construct: expressed in transfected cells; host or cells: HEK293
T1 sequence (Q8NET8 1-790): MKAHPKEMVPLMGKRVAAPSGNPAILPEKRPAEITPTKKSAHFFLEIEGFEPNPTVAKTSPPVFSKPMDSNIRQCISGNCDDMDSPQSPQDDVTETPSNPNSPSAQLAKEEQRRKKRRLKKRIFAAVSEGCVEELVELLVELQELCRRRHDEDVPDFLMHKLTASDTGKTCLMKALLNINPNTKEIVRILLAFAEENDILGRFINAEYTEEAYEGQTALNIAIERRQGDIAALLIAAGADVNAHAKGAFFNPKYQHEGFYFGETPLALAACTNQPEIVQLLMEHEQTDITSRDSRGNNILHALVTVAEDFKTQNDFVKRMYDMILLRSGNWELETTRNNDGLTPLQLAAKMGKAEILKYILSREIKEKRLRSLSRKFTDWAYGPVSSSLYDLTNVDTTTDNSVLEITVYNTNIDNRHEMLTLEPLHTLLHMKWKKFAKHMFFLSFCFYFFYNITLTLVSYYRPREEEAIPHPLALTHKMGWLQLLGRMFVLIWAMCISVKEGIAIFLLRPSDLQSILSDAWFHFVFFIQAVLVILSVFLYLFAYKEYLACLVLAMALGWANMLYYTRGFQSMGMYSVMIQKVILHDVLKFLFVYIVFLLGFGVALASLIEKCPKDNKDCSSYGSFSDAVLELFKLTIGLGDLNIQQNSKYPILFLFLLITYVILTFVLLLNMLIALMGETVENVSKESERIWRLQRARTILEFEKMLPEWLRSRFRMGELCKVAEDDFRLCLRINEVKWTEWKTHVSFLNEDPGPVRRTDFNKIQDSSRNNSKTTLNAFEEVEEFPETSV
In words: Calcium flux assay (FLIPR TETRA), recombinant HEK293 cells expressing TRPV3, 2-APB response. It counts as cell-based. To be noted: 2-APB at its EC80. Summed up:
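Response is the peak fluorescence increase over baseline, as a percentage of the compound-free response to 2-APB at EC80. Calcium flux recorded on FLIPR TETRA in stable human or mouse TRPV3 HEK293 cells after 90–120 min Calcium-4 dye loading.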
On the technique in general: A change in cytosolic calcium serves as a functional read-out for many receptors and channels.

Like-named read-outs stand apart in the source and are kept apart here.

With `c1ccc(B(OB(c2ccccc2)c2ccccc2)c2ccccc2)cc1` [DPBA, diphenylboronic anhydride], in the test on TRPV3, the EC50 (in general, the concentration that produces a half-maximal response) is around 40 µM. On to `NCCOB(c1ccccc1)c1ccccc1` [Example 2-APB, 2-aminoethoxydiphenylborate], for which the EC50 in the test with TRPV3 was around 40 µM. `COc1ncnc(OC)c1C(=O)Nc1nc(C(F)(F)F)c(-c2cccc(C#N)n2)s1` [Example 31, N-[5-(6-cyanopyridin-2-yl)-4-(trifluoromethyl)-1,3-thiazol-2-yl]-4,6-dimethoxypyrimidine-5-carboxamide]: the inhibition in vivo at 30 mg/kg in the test on FITC-challenged mice (30 mg/kg qd po) was above 50%. In addition, the IC50 (in general, the concentration at which inhibition is half-maximal) on human TRPV3 was below 0.05 µM. As for `COc1ncnc(OC)c1C(=O)Nc1nc(C(F)(F)F)c(-c2cnoc2)s1` [Example 169, 4,6-dimethoxy-N-[5-(1,2-oxazol-4-yl)-4-(trifluoromethyl)-1,3-thiazol-2-yl]pyrimidine-5-carboxamide], the inhibition in vivo at 30 mg/kg in the test with FITC-challenged mice (30 mg/kg bid po) is below 30%. At human TRPV3, the IC50 is below 0.05 µM.

(Values after patent US20180243298A1, “TRPV3 MODULATORS” (AbbVie Inc., priority 2015, published 2018).)
